These results are taken from patent publication US20180237441A1, “Chemical Compounds” (GlaxoSmithKline Intellectual Property (No.2) Limited, priority 2015, published 2018).

The structures appear in SMILES notation. Read-outs that look alike come from different tables or passages of the source.

One assay concerns prion infected mice. The conditions noted are these: cited from earlier work.
A further assay deals with T1, PERK (Homo sapiens, UniProt Q9NZJ5).
T1 sequence (Q9NZJ5 30-1116): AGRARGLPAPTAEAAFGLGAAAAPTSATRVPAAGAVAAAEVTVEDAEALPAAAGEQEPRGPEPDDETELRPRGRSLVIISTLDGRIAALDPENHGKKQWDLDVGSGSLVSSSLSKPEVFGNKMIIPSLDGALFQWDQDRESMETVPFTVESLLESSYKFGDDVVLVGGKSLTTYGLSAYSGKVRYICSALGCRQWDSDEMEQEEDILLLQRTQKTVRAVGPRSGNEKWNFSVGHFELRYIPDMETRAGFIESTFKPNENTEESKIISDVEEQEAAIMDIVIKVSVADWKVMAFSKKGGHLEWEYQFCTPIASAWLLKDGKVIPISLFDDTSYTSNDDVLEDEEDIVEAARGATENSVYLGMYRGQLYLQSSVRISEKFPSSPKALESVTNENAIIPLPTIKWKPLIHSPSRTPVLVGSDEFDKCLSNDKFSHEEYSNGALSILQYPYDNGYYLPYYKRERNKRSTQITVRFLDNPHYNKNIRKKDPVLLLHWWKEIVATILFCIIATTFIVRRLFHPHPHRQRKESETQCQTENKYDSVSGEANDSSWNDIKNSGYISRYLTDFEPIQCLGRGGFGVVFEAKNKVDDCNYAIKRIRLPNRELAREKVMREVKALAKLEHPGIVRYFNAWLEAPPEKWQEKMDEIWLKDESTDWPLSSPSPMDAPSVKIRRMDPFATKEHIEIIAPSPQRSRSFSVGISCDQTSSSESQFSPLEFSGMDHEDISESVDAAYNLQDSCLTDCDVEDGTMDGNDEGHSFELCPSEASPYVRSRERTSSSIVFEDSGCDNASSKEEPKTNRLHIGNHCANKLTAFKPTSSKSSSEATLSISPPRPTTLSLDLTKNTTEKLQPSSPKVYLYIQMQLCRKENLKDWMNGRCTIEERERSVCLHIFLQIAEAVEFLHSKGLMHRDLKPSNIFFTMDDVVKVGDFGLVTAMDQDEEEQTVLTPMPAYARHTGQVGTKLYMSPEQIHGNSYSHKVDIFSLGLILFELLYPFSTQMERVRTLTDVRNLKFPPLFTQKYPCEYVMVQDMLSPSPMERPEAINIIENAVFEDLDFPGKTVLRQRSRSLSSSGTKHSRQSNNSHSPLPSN
In words: PERK enzyme assay (HTRF). The class given is biochemical. The conditions noted are these: at least one experimental run. In outline: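 GST-PERK (0.75 nM final) pre-incubated 30–60 min with compound (≤1% DMSO) in HEPES pH 7.5/CHAPS/MgCl2/DTT, then 500 μM ATP and 40 nM biotin-eIF2α added for 60 min. EDTA quench; HTRF detection of phospho-eIF2α (Eu anti-rabbit/streptavidin-APC) read after 2 h; IC50 from concentration series.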

[1] abbreviates: PERK Enzyme (500 μM ATP) IC50, read-out: PERK Activity.
Setting [2] is: 500 μM ATP, read-out: PERK Enzyme (500 μM ATP) IC50.

For the molecule `Cn1cc(-c2ccc3c(c2)CCN3C(=O)Cc2cccc(C(F)(F)F)c2)c2c(N)ncnc21` [GSK2606414, 7-methyl-5-(1-{[3-(trifluoromethyl)phenyl]acetyl}-2,3-dihydro-1H-indol-5-yl)-7H-pyrrolo[2,3-d]pyrimidin-4-amine], the “neuroprotective effect and clinical signs of disease” value with prion infected mice is “provide a neuroprotective effect and prevent clinical signs of disease”.

As for `CN1C(=O)N(c2ccc(-c3cn(C)c4ncnc(N)c34)c(Cl)c2)CC1c1cc(F)cc(F)c1` (single isomer, unassigned) [Example 128, 1-(4-(4-amino-7-methyl-7H-pyrrolo[2,3-d]pyrimidin-5-yl)-3-chlorophenyl)-4-(3,5-difluorophenyl)-3-methylimidazolidin-2-one], the IC50 on PERK (setting [1]) was below 100 nM.

On to `CCN1C(=O)N(c2ccc(-c3cn(C)c4ncnc(N)c34)c(F)c2)CC1c1cc(F)ccc1F` (single isomer, unassigned) [Example 3, 1-(4-(4-amino-7-methyl-7H-pyrrolo[2,3-d]pyrimidin-5-yl)-3-fluorophenyl)-4-(2,5-difluorophenyl)-3-ethylimidazolidin-2-one], for which the IC50 on PERK (setting [1]) lay within 100 to 1000 nM.

On to `CCN1C(=O)N(c2ccc(-c3cn(C4CC4)c4ncnc(N)c34)c(F)c2)CC1c1cc(F)cc(F)c1` (centres unmarked) [Example 170, 1-(4-(4-amino-7-cyclopropyl-7H-pyrrolo[2,3-d]pyrimidin-5-yl)-3-fluorophenyl)-4-(3,5-difluorophenyl)-3-ethylimidazolidin-2-one], for which the IC50 at PERK (setting [1]) was below 100 nM.

Take `CN1C(=O)N(c2ccc(-c3cn(C)c4ncnc(N)c34)c(F)c2)CC1c1ccc(F)c(F)c1` (single isomer, unassigned) [Example 115, 1-(4-(4-amino-7-methyl-7H-pyrrolo[2,3-d]pyrimidin-5-yl)-3-fluorophenyl)-4-(3,4-difluorophenyl)-3-methylimidazolidin-2-one]: the IC50 at PERK (setting [2]) was 2.4 nM; at PERK (setting [1]), below 100 nM.

As for `Cc1nc(N)c2c(-c3ccc(N4CC(c5ccc(Cl)nc5)N(C)C4=O)cc3F)cn(C)c2n1` (centres unmarked) [Example 135, 1-(4-(4-amino-2,7-dimethyl-7H-pyrrolo[2,3-d]pyrimidin-5-yl)-3-fluorophenyl)-4-(6-chloropyridin-3-yl)-3-methylimidazolidin-2-one], the IC50 on PERK (setting [1]) is below 100 nM.

As to `Cc1nc(C2CN(c3ccc(-c4cn(C)c5ncnc(N)c45)c(F)c3)C(=O)N2C)ccc1F` (single isomer, unassigned) [Example 113, 1-(4-(4-amino-7-methyl-7H-pyrrolo[2,3-d]pyrimidin-5-yl)-3-fluorophenyl)-4-(5-fluoro-6-methylpyridin-2-yl)-3-methylimidazolidin-2-one], the IC50 at PERK (setting [1]) is below 100 nM.

On to `CN1C(=O)N(c2ccc(-c3cn(C)c4ncnc(N)c34)c(F)c2)CC1c1cccnc1` (centres unmarked) [Example 60, 1-(4-(4-amino-7-methyl-7H-pyrrolo[2,3-d]pyrimidin-5-yl)-3-fluorophenyl)-3-methyl-4-(pyridin-3-yl)imidazolidin-2-one], for which the IC50 at PERK (setting [1]) was below 100 nM.

Regarding `CN1C(=O)N(c2ccc(-c3cn(C4CC4)c4ncnc(N)c34)c(F)c2)CC1c1ccc(F)cc1F` (single isomer, unassigned) [Example 137, 1-(4-(4-amino-7-cyclopropyl-7H-pyrrolo[2,3-d]pyrimidin-5-yl)-3-fluorophenyl)-4-(2,4-difluorophenyl)-3-methylimidazolidin-2-one], the IC50 is 17.8 nM at PERK (setting [2]) and below 100 nM at PERK (setting [1]).

With `Cn1cc(-c2ccc(N3CC(c4cc(F)ccc4F)NC3=O)cc2F)c2c(N)ncnc21` (centres unmarked) [Example 21, 1-(4-(4-amino-7-methyl-7H-pyrrolo[2,3-d]pyrimidin-5-yl)-3-fluorophenyl)-4-(2,5-difluorophenyl)imidazolidin-2-one], the IC50 at PERK (setting [1]) was in the range of 100 to 1000 nM.

`CCN1C(=O)N(c2ccc(-c3cn(C4CC4)c4ncnc(N)c34)c(F)c2)CC1c1cc(F)cc(F)c1` (single isomer, unassigned) [Example 174, 1-(4-(4-amino-7-cyclopropyl-7H-pyrrolo[2,3-d]pyrimidin-5-yl)-3-fluorophenyl)-4-(3,5-difluorophenyl)-3-ethylimidazolidin-2-one]: the IC50 on PERK (setting [1]) was below 100 nM.

Regarding `CN1C(=O)N(c2ccc(-c3cn(C)c4ncnc(N)c34)c(F)c2)CC1c1ccncc1` (centres unmarked) [Example 110, 1-(4-(4-amino-7-methyl-7H-pyrrolo[2,3-d]pyrimidin-5-yl)-3-fluorophenyl)-3-methyl-4-(pyridin-4-yl)imidazolidin-2-one], the IC50 on PERK (setting [2]) is 1980 nM; on PERK (setting [1]) it was above 1000 nM.

Regarding `Cc1nc(N)c2c(-c3ccc(N4CC(c5ccc(Cl)nc5)N(C)C4=O)cc3F)cn(C)c2n1` (single isomer, unassigned) [Example 136, 1-(4-(4-amino-2,7-dimethyl-7H-pyrrolo[2,3-d]pyrimidin-5-yl)-3-fluorophenyl)-4-(6-chloropyridin-3-yl)-3-methylimidazolidin-2-one], the IC50 at PERK (setting [1]) lay in the range of 100 to 1000 nM.

`CN1C(=O)N(c2ccc(-c3cn(C4CC4)c4ncnc(N)c34)c(F)c2)CC1c1ccccc1` (single isomer, unassigned) [Example 165, 1-(4-(4-amino-7-cyclopropyl-7H-pyrrolo[2,3-d]pyrimidin-5-yl)-3-fluorophenyl)-3-methyl-4-phenylimidazolidin-2-one]: the IC50 at PERK (setting [2]) is 4 nM; at PERK (setting [1]) it was below 100 nM.

`CN1C(=O)N(c2ccc(-c3cn(C)c4ncnc(N)c34)c(F)c2)CC1c1cc(F)cc(C(F)(F)F)c1` (centres unmarked) [Example 84, 1-(4-(4-amino-7-methyl-7H-pyrrolo[2,3-d]pyrimidin-5-yl)-3-fluorophenyl)-4-(3-fluoro-5-(trifluoromethyl)phenyl)-3-methylimidazolidin-2-one]: the IC50 at PERK (setting [1]) was 100 to 1000 nM.

`CN1C(=O)N(c2ccc(-c3cn(C4CC4)c4ncnc(N)c34)c(F)c2)CC1c1cccc(Cl)c1` (single isomer, unassigned) [Example 153, 1-(4-(4-amino-7-cyclopropyl-7H-pyrrolo[2,3-d]pyrimidin-5-yl)-3-fluorophenyl)-4-(3-chlorophenyl)-3-methylimidazolidin-2-one]: the IC50 on PERK (setting [1]) was 100 to 1000 nM.
